Reference: US20130023504A1, “Modulation of Prostaglandin/Cyclooxygenase Metabolic Pathways” (HUNTER-FLEMING LIMITED, priority 2006, published 2013)
Marks after values point to notes of the source that are not given here.

Tested on: human PBMC
Assay: PG levels (PGE2, PGD2, 15d-PGJ2) in culture medium of human PBMC cultured with and without TNF-α, EIA (Example 3)
Type: cell-based
Protocol: Whole blood was collected from donors in EDTA-supplemented pouches at the Etablissement Français du Sang (Brest, France). The PBMC were isolated then from whole blood under sterile conditions within 36 hours after collection. Gradient density centrifugation was carried out on Ficoll (Eurobio). After washing in RPMI 1640 medium (Eurobio), cells were suspended in RPMI 1640 medium supplemented with 10% heat-inactivated fetal calf serum (Eurobio), 2 mM glutamine (D. Dutscher), 100 U of penicillin/ml (D. Dutscher), and 100 μg of streptomycin/ml (D. Dutscher). Monocytes were selected by plastic adherence for 1 h and approximately 10^7 cells were plated in 6-well tissue culture plates (3 mL medium per well). All incubations were performed in a humidified incubator at 37° C. and 5% CO2. Cells were recovered and dispersed in 2 ml fresh incubation medium supplemented with either 7β-hydroxyEPIA, 7β-hydroxy-DHEA, or 7α-hydroxy-DHEA (in 20 μL ethanol) in the presence or absence of 0.01 μg/mL TNF-α (Sigma-Aldrich). Control incubations contained 20 μl ethanol but no steroid. Supernatants were collected after 4 h and 24 hours incubations for measurement of their PG contents and cells were used for subsequent RNA isolation. A single step extraction method using the Trizol Reagent (Invitrogen, Cergy-Pontoise, France) provided total RNA.
Commercially available EIA kits were used for the determination of PGE2 levels (Oxford Biomedical Research, UK) and 15d-PGJ2 levels (Assay designs, Euromedex, France) in culture media. Measurement of PGD2 levels was obtained using the prostaglandin D2-MOX EIA kit (Cayman Chemical, Euromedex). In this case, and prior to assay, the fresh samples were immediately treated with the MOX-HCl reagent, which converted PGD2 into PGD2-MOX, thus preventing any further chemical degradation.
All assays were carried out in triplicate and results were plotted as mean±S.E.M. One-way analysis of variance was performed followed by Duncan's multiple range tests in order to compare the differences between groups. Differences were considered statistically significant when p<0.05.

[1] = 100 nM + TNF-α (10 ng/mL), 24 h

`CC12CCC3C(C1CCC2=O)[C@@H](O)C[C@H]1C[C@@H](O)CCC31C` (stereo partly drawn) [Compound 7β-OH-EPIA, 7β-hydroxy-EPIAndrosterone] showed a 15d-PGJ2 (1 nM + TNF-α (10 ng/mL), 4 h) of 0.37 ± 0.029 ng/mL, a PGD2 (1 nM + TNF-α (10 ng/mL), 4 h) of 0.22 ± 0.082 ng/mL and a PGE2 (1 nM + TNF-α (10 ng/mL), 4 h) of 0.50 ± 0.012 ng/mL. For the same molecule, the 15d-PGJ2 (1 nM + TNF-α (10 ng/mL), 24 h) was 2.18 ± 0.183^c ng/mL, the PGD2 (1 nM + TNF-α (10 ng/mL), 24 h) was 0.47 ± 0.013^d ng/mL and the PGE2 (1 nM + TNF-α (10 ng/mL), 24 h) was 0.70 ± 0.001^b ng/mL. The 15d-PGJ2 (1 nM, 4 h, without TNF-α) was 0.39 ± 0.080 ng/mL, the PGD2 (1 nM, 4 h, without TNF-α) was 0.18 ± 0.005 ng/mL and the PGE2 (1 nM, 4 h, without TNF-α) was 0.26 ± 0.011 ng/mL. The 15d-PGJ2 (1 nM, 24 h, without TNF-α) was 0.85 ± 0.014^a ng/mL, the PGD2 (1 nM, 24 h, without TNF-α) was 0.21 ± 0.012^a ng/mL and the PGE2 (1 nM, 24 h, without TNF-α) was 0.26 ± 0.015 ng/mL. The 15d-PGJ2 (10 nM + TNF-α (10 ng/mL), 4 h) was 0.40 ± 0.007 ng/mL, the PGD2 (10 nM + TNF-α (10 ng/mL), 4 h) was 0.22 ± 0.010 ng/mL and the PGE2 (10 nM + TNF-α (10 ng/mL), 4 h) was 0.49 ± 0.021 ng/mL. For the same molecule, the 15d-PGJ2 (10 nM + TNF-α (10 ng/mL), 24 h) was 2.77 ± 0.021^c ng/mL, the PGD2 (10 nM + TNF-α (10 ng/mL), 24 h) was 0.42 ± 0.009^d ng/mL and the PGE2 (10 nM + TNF-α (10 ng/mL), 24 h) was 0.80 ± 0.012^b ng/mL. The 15d-PGJ2 (10 nM, 4 h, without TNF-α) was 0.39 ± 0.010 ng/mL, the PGD2 (10 nM, 4 h, without TNF-α) was 0.19 ± 0.020 ng/mL and the PGE2 (10 nM, 4 h, without TNF-α) was 0.23 ± 0.022 ng/mL. The 15d-PGJ2 (10 nM, 24 h, without TNF-α) was 0.91 ± 0.032^a ng/mL, the PGD2 (10 nM, 24 h, without TNF-α) was 0.23 ± 0.001^a ng/mL and the PGE2 (10 nM, 24 h, without TNF-α) was 0.23 ± 0.021 ng/mL. It also gave a 15d-PGJ2 (100 nM + TNF-α (10 ng/mL), 4 h) of 0.37 ± 0.016 ng/mL, a PGD2 (100 nM + TNF-α (10 ng/mL), 4 h) of 0.23 ± 0.007 ng/mL and a PGE2 (100 nM + TNF-α (10 ng/mL), 4 h) of 0.42 ± 0.020 ng/mL. The 15d-PGJ2 [1] was 0.85 ± 0.019^ ng/mL, the PGD2 [1] was 0.40 ± 0.030^d ng/mL and the PGE2 [1] was 0.71 ± 0.012^b ng/mL. The 15d-PGJ2 (100 nM, 4 h, without TNF-α) was 0.37 ± 0.018 ng/mL, the PGD2 (100 nM, 4 h, without TNF-α) was 0.20 ± 0.013 ng/mL and the PGE2 (100 nM, 4 h, without TNF-α) was 0.22 ± 0.020 ng/mL. The 15d-PGJ2 (100 nM, 24 h, without TNF-α) was 1.70 ± 0.016^a ng/mL, the PGD2 (100 nM, 24 h, without TNF-α) was 0.24 ± 0.031^a ng/mL and the PGE2 (100 nM, 24 h, without TNF-α) was 0.24 ± 0.022 ng/mL.
